Test results taken from PubChem BioAssay AID489040 (Sanford-Burnham Center for Chemical Genomics, 2010).
Activity calls are given as the source filed them.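 Rule for the calls: active = mean half-maximal activating concentration from the dose-response fit at or below a set limit; inactive = the rest.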

Target: CHO-XBP1 luciferase reporter, IRE1-XBP1 UPR activation
Assay: XBP1 luciferase reporter activation – CHO-XBP1 cells, luminescence, counter-screen for apoptotic UPR arm activators, dose response (AID 489040);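 note: reporter read after six hours of compound exposure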

Row | SMILES | EC50
1 | COc1ccc2cc(C)c3nnc(SCC(=O)Nc4nc(-c5ccc(F)cc5)cs4)n3c2c1 | inactive
2 | CC1=CC(C)(C)Nc2ccc(OC(=O)CN3C(=O)C4CCCCC4C3=O)cc21 (stereo not drawn) | > 80 µM (inactive)
3 | Cc1ccccc1NC(=O)c1ccc(N/N=C/c2ccccc2O)c([N+](=O)[O-])c1 | > 80 µM (inactive)
4 | CCCN(CCC)C(=O)c1cc([N+](=O)[O-])cc2c1-c1ccc([N+](=O)[O-])cc1C2=C(C#N)C#N | > 80 µM (inactive)
5 | Cc1ccn2cc(-c3ccc(O)c(O)c3)nc2c1 | > 80 µM (inactive)
6 | CCCCCOc1ccc(N2C(=O)CC(N(O)c3ccccc3)C2=O)cc1 (stereo not drawn) | > 80 µM (inactive)
7 | CCOc1cc(/C=N/NC(N)=S)cc(Br)c1OCc1ccccc1C | > 80 µM (inactive)
8 | COc1cccc2sc(Nc3nc(-c4ccccn4)cs3)nc12 | > 80 µM (inactive)
9 | COc1ccc2[nH]cc(C(=O)CCl)c2c1 | > 80 µM (inactive)
10 | Cc1ccc2cccc(NS(=O)(=O)c3ccccc3)c2n1 | > 80 µM (inactive)
11 | CCc1cc(C(=O)c2ccc(C)cc2)c(NC(=O)CCl)s1 | > 80 µM (inactive)
12 | COc1ccc(/C=N/Nc2cc(C)nc(-n3nc(C)cc3C)n2)cc1 | > 80 µM (inactive)
13 | COc1ccccc1-c1cc(C(F)(F)F)nc(S(=O)(=O)CCCC(=O)N2CCCCC2C)n1 (stereo not drawn) | > 80 µM (inactive)
14 | COC(=O)c1c(NC(=O)CC2Nc3ccccc3NC2=O)sc(C)c1C (stereo not drawn) | > 80 µM (inactive)
15 | Cc1ccc(C(=O)C(C(=O)/C=C/c2ccccc2)=C2SCCCS2)cc1 | > 80 µM (inactive)
16 | COc1cc(NC(=O)c2cncc(-c3ccc(C#N)cc3)c2)cc(C(=O)Nc2cccc(C(F)(F)F)c2)c1 | 19.3 µM
17 | Cn1nc(C(F)(F)F)c(/C=N/OC(=O)c2ccccc2)c1SCc1ccccc1Cl | 6.11 µM
18 | COc1ccc(NS(=O)(=O)c2ccc3ccccc3c2)c2ncccc12 | > 80 µM (inactive)
19 | S=C1SCN(CCN2CCOCC2)CN1Cc1ccccc1 | > 80 µM (inactive)
20 | COc1cc(CNc2ccc3[nH]c(=O)[nH]c3c2)cc(Br)c1OCc1ccccc1F | > 80 µM (inactive)
21 | O=C(Nc1cccc(S(=O)(=O)N2CCCCC2)c1)c1ccc([N+](=O)[O-])o1 | > 80 µM (inactive)
22 | CC1CCC/C=C/C(=O)c2c(O)cc(O)cc2CC(=O)O1 (stereo not drawn) | > 80 µM (inactive)
23 | CC(C)(C)C(=O)NC(=S)NNC(=O)c1ccc(-c2ccccc2)cc1 | 9.6 µM
24 | Cc1cccc(/C=C/C(=O)c2ccc([N+](=O)[O-])o2)c1 | > 80 µM (inactive)

Row | SMILES | EC50
25 | Cc1ccc(C[n+]2c(-c3ccc(C)cc3)cc(-c3ccc(C)cc3)cc2-c2ccc(C)cc2)cc1 | > 80 µM (inactive)
26 | CCOc1ccc(-c2nnc(SCC(=O)Nc3ccc4c(c3)c3ccccc3n4CC)n2N)cc1 | > 80 µM (inactive)
27 | Cc1sc(NC(=O)c2cc(-c3ccc(Cl)cc3)nc3ccccc23)c(C(N)=O)c1C | 15.2 µM
28 | O=C(N/N=C/c1ccccn1)c1ccc(Cl)c(Cl)c1 | > 80 µM (inactive)
29 | Cc1nn(-c2ccccc2)c(C)c1/C=N/NC(=O)CSc1nc2ccccc2c(=O)n1-c1ccc(Br)cc1 | 9.09 µM
30 | CCc1ccc(N2C(=O)NC(=O)/C(=C\C=C\c3ccco3)C2=O)cc1 | > 80 µM (inactive)
31 | O=c1c2ccccc2nc(/C=C/c2ccc([N+](=O)[O-])o2)n1-c1ccc(O)cc1 | > 80 µM (inactive)
32 | Cc1ccc(Sc2ccc(/C=C3/C(=O)NN(c4ccccc4)C3=O)o2)cc1 | > 80 µM (inactive)
33 | CCOC(=O)c1ccc(-c2ccc(/C=N/NC(=O)CN(c3cccc(C)c3)S(C)(=O)=O)o2)cc1 | inactive
34 | CC(C)C(=O)N1CCN(c2ccc(NC(=O)c3ccc([N+](=O)[O-])o3)cc2)CC1 | > 80 µM (inactive)
35 | CN(C)C(=S)N=Nc1[nH]c2ccccc2c1O | > 80 µM (inactive)
36 | CCOc1ccc(N2C(=O)CC(N(O)c3ccccc3)C2=O)cc1 (stereo not drawn) | > 80 µM (inactive)
37 | COc1cccc(N=Cc2c(O)c3ccccc3oc2=O)c1 | > 80 µM (inactive)
38 | O=C(/C=C/Sc1ccc(C(F)(F)F)cn1)c1ccccc1 | > 80 µM (inactive)
39 | O=C1Nc2ccccc2/C1=C/C(=O)c1cccs1 | > 80 µM (inactive)
40 | Cc1nc([N+](=O)[O-])c(Br)n1CC(=O)c1ccc(Br)cc1 | > 80 µM (inactive)
41 | COc1cc(CN2CCN(c3cc(C)ccc3C)CC2)ccc1O | > 80 µM (inactive)
42 | CCOC(=O)N1CCN(Cc2cc(Cl)c3cccnc3c2O)CC1 | > 80 µM (inactive)
43 | CCOC(=O)c1cnc(Nc2nc3ccccc3o2)nc1CSC(=S)N(CC)CC | 4.59 µM
44 | COc1ccc(CCNC(=O)c2coc(=O)c(Br)c2)cc1 | > 80 µM (inactive)
45 | Cc1ccc(CN2CCN(/N=C/c3ccc(O)c(O)c3)CC2)cc1 | > 80 µM (inactive)
46 | c1ccc(-c2nc(N3CCCCCC3)c3ccccc3n2)nc1 | > 80 µM (inactive)
47 | FC(F)(F)c1nnc(-c2ccccc2)nc1Sc1ccccc1 | > 80 µM (inactive)
48 | CCOC(=O)N1CCN(S(=O)(=O)c2ccc(C(=O)Nc3nc4c(s3)CC(C)CC4)cc2)CC1 (stereo not drawn) | > 80 µM (inactive)
